# Experimental data as given in PMC12040169 (PLOS Biology, 2025).
# Assay: in vitro
# Settings: human, hela cells, % viability
row,SMILES,"viability at 28.5 h, 10 µM [%]"
1,O=C(Nc1ccc(F)cc1)N1Cc2nc[nH]c2C[C@H]1c1nc(-c2ccc(F)cc2)no1 [CBK288970],95
2,O=C(O)c1ccccc1-c1ccccc1C(=O)Nc1ccc(O)cc1 [CBK286602],85.1
3,COc1cc(/C=C2\SC(=S)N(Cc3cccnc3)C2=O)ccc1OCc1cccc2ccccc12 [CBK264624],112
4,CC1=C(C(=O)Nc2ccccc2)C(c2ccccc2)C(C#N)=C(SCc2ccncc2)N1 (centres unmarked) [CBK267448],90.2
5,CN(C)S(=O)(=O)Nc1ccc(Cc2ccncc2)cc1 [CBK265011],115
6,COc1ccc(-c2cc(C(=O)NCc3ccc(N)cc3)cnc2-c2cccc(C)c2)cc1 [CBK036728],106
7,CCc1nc2ccc(C(=O)N(C)CCN(C)C)cn2c1N(CC)CCOC [CBK146018],94.2
8,CN(C)CCCNc1cc(Cl)c(S(=O)(=O)N2CCCCC2)cc1C(=O)O [CBK265784],95.5
9,O=C(O)CCCC(=O)Nc1ccccc1Br [CBK261322],102
10,Cc1nc2c(C(=O)NCCNC(=O)c3cccnc3)ncn2c(C)c1Cc1ccc(F)c(Cl)c1 [CBK169332],89.8
11,Cc1nc(-c2ccc(CNC(=O)C(Cc3ccccc3)N3CCCC3)cc2)ccc1C(N)=O (centres unmarked) [CBK286017],92.6
12,N#Cc1c(NC(=O)c2cccnc2)sc2c1CCCCC2 [CBK287584],98.6
13,COc1ccccc1CN(Cc1cccnc1)C(=O)NC(C)C(C)C (centres unmarked) [CBK307672],85.2
14,CC(C)c1ccc2c(c1)C(N1CCN(C)CC1)Cc1cccnc1S2 (centres unmarked) [CBK026244G],98.7
15,O=C(Cn1cccnc1=O)NC(c1ccc2c(c1)CCO2)C1CC(O)C1 (centres unmarked) [CBK306595],75.3
16,CC(C)C(=O)Nc1cc2ccccc2c(-c2cccnc2)n1 [CBK073786],101
17,FC(F)(F)c1csc(Nc2ccc(Cl)c(Cl)c2)n1 [CBK019093],85.6
18,Oc1ccccc1-c1cc(-c2ccccc2)c2c(ccc3ncccc32)n1 [CBK261276],91.9
19,CCN(CC)CCN1CCN(c2cncc(-c3cccs3)n2)CC1 [CBK065703],95.5
20,COc1ccccc1/C=C/CN(C)CCN(C)C [CBK261888],88.5
21,Cc1nn(C)c(C)c1NC(=O)CN1CCN(c2cccc(Cl)c2)CC1 [CBK306052],81.1
22,O=C(NCc1ccc(-c2csnn2)cc1)c1c(F)cccc1F [CBK149310],86
23,CC(=O)N1CCN(c2ccc(Oc3ncc(C(F)(F)F)cc3Cl)cc2)CC1 [CBK161650],104

row,SMILES,"viability at 28.5 h, 10 µM [%]"
1,O=C(CN1CCCCCC1)N/N=C/c1ccc(F)c(Br)c1 [CBK261596],94.7
2,Cc1ccc(NCC2CCN(CC(=O)Nc3cc(C)on3)C2)nc1 (centres unmarked) [CBK306337],95.5
3,CC(=O)Nc1ccc(/C(C)=N\NC(=O)CCN2CCCCC2)cc1 [CBK263509],95.9
4,Cc1cccc(C)c1OCC(=O)Nc1c[nH]c(=O)[nH]c1=O [CBK263358],46.2
5,COc1ccc(-c2ccc(=O)n(CCN)n2)cc1 [CBK270130C],97.2
6,CCC(=O)Nc1ccc(-c2csc(N3CCSCC3)n2)cc1 [CBK306469],87
7,Cc1n[nH]c(O)c1C(c1cccc([N+](=O)[O-])c1)c1c(C)n[nH]c1O [CBK264753],97.8
8,CC(C)(C)c1ccccc1NC(=O)N(Cc1cc(F)cc(F)c1)CC1CCNCC1 [CBK049802],108
9,Cc1csc(C(Cc2ccsc2)NC(=O)c2cnn(C)c2C)n1 (centres unmarked) [CBK285148],104
10,COc1c(C)cccc1C(=O)N1CCCCC1c1ncc(C(=O)Nc2ccccc2)c(C)n1 (centres unmarked) [CBK285841],89.9
11,COc1ccc(C2c3ccccc3C[N+]3(C)CCCN23)cc1 (centres unmarked) [CBK008769],95.7
12,CC1Cc2cc(-c3cn4ccccc4n3)ccc2N1S(C)(=O)=O (centres unmarked) [CBK285194],94.3
13,CCOc1ccccc1NC(=O)c1cc2cccnc2n(Cc2ccc(Cl)cc2)c1=O [CBK294395],109
14,O=S(=O)(Nc1nnn[nH]1)c1cccc2nsnc12 [CBK062379],99
15,Cc1ccc(-c2nc3cc(Cl)ccc3o2)cc1NC(=S)NC(=O)c1cccc(Cl)c1 [CBK264022],108
16,CCOC(=O)c1c(NC(=O)c2cccnc2)sc2c1CCCC2 [CBK304574],101
17,Cc1c(CN(Cc2cccc(F)c2)CC2CCCO2)cnn1C (centres unmarked) [CBK282953],89.9
18,CC(=O)N1CCc2sccc2C1c1ccc(NC(=O)c2ccc(F)cc2)cc1 (centres unmarked) [CBK286434],89
19,COc1cc(CNC2CCCCCC2)c([N+](=O)[O-])cc1OC [CBK262194],96.4
20,O=C(CCC(=O)c1ccccc1)NC1CCc2ccccc21 (centres unmarked) [CBK003351],103
21,COc1ccc(OC(C)C(=O)O/N=C(\N)c2ccccn2)cc1 (centres unmarked) [CBK266669],100
22,COc1ccc(/C=N/NC(=O)c2ccc(O)cc2O)cc1COc1cc(C)c(Cl)c(C)c1 [CBK263000],90.3
23,O=C(Nc1cccnc1)c1cc2cc(Cl)ccc2[nH]1 [CBK107261],88.7

row,SMILES,"viability at 28.5 h, 10 µM [%]"
1,O=C(c1cc(F)c(F)cc1F)N1CCC2(CCN(Cc3nc4ccccc4[nH]3)C2)C1 (centres unmarked) [CBK132134],89.9
2,CNc1ccc(OC(=O)c2ccco2)cc1 [CBK010779],88.1
3,Cc1cc(C)n(C(=O)c2ccc([N+](=O)[O-])cc2N)n1 [CBK266491],102
4,Cc1ccc(C(=O)Nc2ncn(CC(=O)N3CCCCCC3)n2)cc1 [CBK304569],106
5,O=c1[nH]c(=S)c2c(n1CCc1ccccn1)CCCC2 [CBK023951G],101
6,COc1ccc(Nc2nc(N)nc(CSc3nncn3C)n2)cc1 [CBK266730],88.9
7,CSCCCNC(=O)c1cncc(-c2ccc(C(=O)N3CCOCC3)cc2)c1 [CBK158610],92.7
8,Cc1ncn(Cc2nc(-c3ccsc3)no2)c(=O)c1C [CBK304158],113
9,Clc1ccc(COc2ccccc2OCc2ccccc2)s1 [CBK002766],87.7
10,O=C(c1ccco1)N1CCC(Cn2cncn2)(C2CCCCC2)CC1 [CBK136811],87.2
11,N#Cc1cccc(S(=O)(=O)N2CCCCC2CO)c1 (centres unmarked) [CBK051524],100
12,Cn1cc(CNS(=O)(=O)c2ccc(Br)c(F)c2)cn1 [CBK305539],87.7
13,CCn1cc(CN(CCN(C)C)Cc2ccc(C)o2)c(C)n1 [CBK282845],79.6
14,COC(=O)c1ccc(CO)nc1 [CBK261376C],104
15,O=C(O)Cc1ccc(NC(=S)Nc2ccc([N+](=O)[O-])cc2)cc1 [CBK266959],98.7
16,O=C(Cn1cccc2cc(C3CCCNC3)nc1-2)NC1CCCC1 (centres unmarked) [CBK285015],95.5
17,COCCN1C(=O)C2(CC(=O)N(CCOc3ccccc3)C2=O)c2ccccc21 (centres unmarked) [CBK075322],98.5
18,O=C(O)CC(NS(=O)(=O)c1cccc([N+](=O)[O-])c1)c1ccccc1 (centres unmarked) [CBK262641],96.4
19,O=C(O)CSc1nnc(-c2ccncc2)n1-c1ccccc1 [CBK264426],109
20,CC(=O)N1CCC(C(=O)N2CCC(C(=O)NC(c3ccccn3)c3cccs3)CC2)CC1 (centres unmarked) [CBK060118],95
21,CN(C)CC(=O)Nc1ccc(Oc2ccc(Cl)cc2)cc1 [CBK269459C],94.9
22,N/C(=N\OC(=O)CCCc1ccccc1)c1ccc(Cl)cc1 [CBK264454],107
23,O=C(CN1CCCC1Cn1cncn1)NCCc1ccsc1 (centres unmarked) [CBK305113],85.2

row,SMILES,"viability at 28.5 h, 10 µM [%]"
1,CC(=O)Nc1ccc(-c2csc(Nc3ccc(S(=O)(=O)Nc4nc(C)cc(C)n4)cc3)n2)cc1 [CBK267295],87
2,CCc1nc2c(OCCOC)cccn2c1N(C)C(=O)c1ccccc1F [CBK147722],91.3
3,CN(CC(=O)NNC(=O)c1ccc(C(C)(C)C)cc1)S(=O)(=O)c1cc(Cl)ccc1Cl [CBK267376],107
4,O=C(c1cncnc1)N1CCCC2(CCN(C(=O)c3cc(F)c(F)cc3F)C2)C1 (centres unmarked) [CBK131564],106
5,c1ccc(COc2ccc3[nH]c4c(c3c2)CCNC42CCN(Cc3ccccc3-c3ccccc3)C2)cc1 (centres unmarked) [CBK039909],73.9
6,FC(F)(F)Oc1ccc(CNc2nccnc2-c2cccs2)cc1 [CBK036806],100
7,O=C(O)C1CCCN(C(=O)NCCOc2ccccc2)C1 (centres unmarked) [CBK161366],115
8,CCOc1ccc(-c2nc(C#N)c(NCCN3CCOCC3)o2)cc1 [CBK265867],112
9,CC(=O)N[C@H]1CC[C@]2(C)CCC([C@H](C)C(=O)NCCN3CCOCC3)[C@H](O)[C@H]2[C@@H]1C (some centres unmarked) [CBK289434],114
10,C/C(=C\c1ccccc1)CN1CCC(C(=O)N2CCN(Cc3ccc4c(c3)OCO4)CC2)CC1 [CBK264327],94.1
11,Cc1ccc(NC(=O)COc2ccccc2)c(NC(=O)c2ccccc2I)c1 [CBK266793],98.2
12,O=C(CC(CN1CCN(c2ccccn2)CC1)C(=O)O)NCc1ccccc1 (centres unmarked) [CBK286649],89
13,Cn1c(/N=C(\C=N\c2cc(=O)n(C)c(=O)n2C)c2ccccc2)cc(=O)n(C)c1=O [CBK303237],87.3
14,O=C(Nc1cnc(-c2cccc(OC(F)(F)F)c2)c(-c2cccnc2)n1)c1ccccn1 [CBK036837],99.2
15,Cc1cccc(OCC2CCCN(C(=O)Cn3cc(C)cn3)C2)c1 (centres unmarked) [CBK281531],89.9
16,O=C(O)c1cc(-c2ccc3c(c2)OCCO3)nc2ccccc12 [CBK262422],92.5
17,Clc1ccc(CN2CCN(c3nccnc3OCc3cccnc3)CC2)cc1Cl [CBK083128T],105
18,NS(=O)(=O)c1ccc(NC(=S)NNS(=O)(=O)c2ccc(Br)cc2)cc1 [CBK266928],111
19,Cc1nnc(CNC(=O)c2cc(-c3ccc(Cl)cc3)nc3ccccc23)o1 [CBK297717],109
20,CCc1nc2cccnc2n1CCNC(=O)Cc1cccs1 [CBK283639],98.9
